Numbered stars: 1 amine (or outer) side, 2 acyl side, 3 side chain; on linkers, the order of the positions; unused ones are H or OH. Bridge positions count the residues as written; N and C are the ends. Square brackets hold non-standard residues; d marks the D form. Peptide text beside a SMILES is read from it. * marks the point of attachment. Ala(piperidin-4-yl) = O=C([C@H](CC1CCN([*:3])CC1)N[*:1])[*:2]; DOTA = O=C(O)CN1CCN(CC(=O)O)CCN(CC(=O)*)CCN(CC(=O)O)CC1; Phe(4-CH2NH2) = NCc1ccc(C[C@H](N)C(=O)O)cc1; 1Nal = N[C@@H](Cc1cccc2ccccc12)C(=O)O; 2Nal = N[C@@H](Cc1ccc2ccccc2c1)C(=O)O; Phe(2-Me) = Cc1ccccc1C[C@H](N)C(=O)O; tBuAla = CC(C)(C)C[C@H](N)C(=O)O; AllylGly = C=CC[C@H](N)C(=O)O; PAF(DOTA) = not defined here; αMeP = C[C@@]1(C(=O)O)CCCN1; NMeS = CN[C@@H](CO)C(=O)O; Ahx = NCCCCCC(=O)O
T1: human DLL3 (Homo sapiens, UniProt Q9NYJ7)
T1 construct: biotin (biotinylated)
T1 sequence (Q9NYJ7 27-618): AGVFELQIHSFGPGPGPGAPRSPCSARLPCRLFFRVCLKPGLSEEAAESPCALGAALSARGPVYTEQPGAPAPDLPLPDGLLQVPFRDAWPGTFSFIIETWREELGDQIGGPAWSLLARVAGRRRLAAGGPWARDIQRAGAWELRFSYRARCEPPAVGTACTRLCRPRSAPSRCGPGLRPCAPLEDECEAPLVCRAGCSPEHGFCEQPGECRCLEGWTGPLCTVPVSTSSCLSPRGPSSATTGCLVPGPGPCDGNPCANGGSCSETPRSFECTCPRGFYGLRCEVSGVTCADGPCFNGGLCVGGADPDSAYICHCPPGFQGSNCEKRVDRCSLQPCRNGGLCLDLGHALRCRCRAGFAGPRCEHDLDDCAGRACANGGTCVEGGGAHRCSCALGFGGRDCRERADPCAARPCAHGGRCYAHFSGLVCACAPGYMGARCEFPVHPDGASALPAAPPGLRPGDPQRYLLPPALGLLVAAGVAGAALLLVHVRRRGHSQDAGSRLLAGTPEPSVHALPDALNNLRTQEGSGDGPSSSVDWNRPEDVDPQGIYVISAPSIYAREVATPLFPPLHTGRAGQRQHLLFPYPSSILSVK


How the values were obtained:
SHP-77 cells [1] = assay: Internalization of [177Lu]Lu-labeled peptide after glycine acid wash, gamma counter internalized fraction; assay type: cell-based, human; details: [177Lu]Lu-test peptide, 1 h, 37° C., acid wash 50 mM Glycine pH 2.5
Experimental: (§1) Example 4. Cell Binding, Internalization, and Radiolabeling of Targeting Moieties Polypeptides General Procedure for Radiolabeling of RPTs with [^177Lu]LuCl3
(§2) [^177Lu]LuCl3 was received from venders in HCl solution. For every mCi of [^177Lu]LUCl3 added to the reaction vial (1.5 mL Eppendorf vial), ammonium acetate buffer (0.2 M, pH 4.9, 100 μL, containing 1% w/v ascorbic acid and 6% v/v ethanol) and peptide conjugate (1 nmol) was added. The pH of the solution was determined to be approximately 5 by using pH strips. The reaction vial was incubated at 80° C., 700 RPM for 17-20 minutes. A sample from the reaction was analyzed by RP-HPLC using an Agilent Infinity II 1260 HPLC to determine reaction completion and radiochemical purity. HPLC conditions: Waters XBridge BEH […] Column, 130 Å, 3.5 um, 4.6 mm×250 mm; mobile phase: Solvent A=water (with 0.1% formic acid), solvent B=acetonitrile (with 0.1% formic acid). Gradients: 25-45% B in 10 minutes, 45-65% B in 12 minutes, 65-90% in 6 minutes at a flow rate of 0.5 mL/min. Required amounts of the product was formulated in 1% PBSA for cell studies.
(§3) The study was conducted using SHP-77cells (Table 7) Adherent cell studies: The cells were cultured in appropriate culture media (20 mL) in tissue culture treated T150 flasks at 37° C. and 5% CO2. Adherent cells were detached (60-70% confluent) using 5 mL Versene at 37° C. for 3 min. After confirming the viability using countess and count of detached cells using Trypan blue, the cells were centrifuged at 4° C. for 5 minutes (1,000 rpm). The cell pellet obtained was washed once with PBS and resuspended in 1% PBSA to obtain the desired cell concentration (5-25 million cells/mL).
as §3, with “Suspension” for “The study was conducted using SHP-77cells (Table 7) Adherent”, “CO2.” for “CO2. Adherent cells were detached (60-70% confluent) using 5 mL Versene at 37° C. for 3 min.”, “viability” for “viability using countess”
(§4) Cell numbers used for the assay were in the range of 5 million cells/condition −25 million cells/condition.
Internalization: The resuspended cells in 300 μl of 1% PBSA and counted in the gamma counter as “bound fraction” were collected in 1.5 ml Eppendorf tube and pelleted. The pelleted cells were incubated with 300 μl of 50 mM Glycine pH=2.5 for 3 minutes and then pelleted discarding the supernatant. This process was repeated one more time. The pelleted cells were washed with 300 μl of cold 1% PBSA and then resuspended in 300 μl 0.3M NaOH. This was counted in the gamma counter as “internalized fraction”.
(§5) SHP-77 cells are human-derived, non-engineered SCLC cells.

human DLL3 = biological target: T1, human DLL3; assay: Affinity determination by Surface Plasmon Resonance (SPR), Biacore, 1:1 binding model; details: biotinylated human DLL3 on streptavidin chip, 25° C.; NB = nonbinding
Summary of the method: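 SPR with biotinylated human DLL3 captured on a streptavidin chip, with a reference surface subtracted. Samples were injected at several concentrations at 100 μL/min in phosphate buffer with 137 mM NaCl, 2.7 mM KCl, 0.05% P20 and 2% DMSO. Kinetic and affinity constants came from a 1:1 binding fit.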

SHP-77 cells [2] = assay: Cell binding (total uptake) of [177Lu]Lu-labeled peptide, gamma counter bound fraction; assay type: cell-based, human; details: [177Lu]Lu-test peptide, 1 h, 37° C., 1% PBSA
Experimental: as §1, §2, §3
as §3, with “Suspension” for “The study was conducted using SHP-77cells (Table 7) Adherent”, “CO2.” for “CO2. Adherent cells were detached (60-70% confluent) using 5 mL Versene at 37° C. for 3 min.”, “viability” for “viability using countess”
as §4
Total uptake: Cells were incubated with 300 μL (0.8 μCi) of the incubation buffer (containing radiolabeled peptide [^177Lu]Lu-test peptide) for 1 hour at 37 C (Table 8). Post incubation, the cells were pelleted and washed 2 times using cold PBS+1% BSA. The supernatant and washes were combined and counted together as “unbound fraction” in a gamma counter. The cells were then resuspended in 300 μL of 1% PBS+1% BSA and counted in the gamma counter as “bound fraction”.
as §5

[3] = biological target: DLL3 on SHP-77 cells (human) (UniProt Q9NYJ7); assay: 177Lu-labelled peptide on SHP-77 cells, 1 h 37 C, gamma count of bound fraction

Row | Molecule | Kd (human DLL3) [pM] | % Binding [3] [%] | % Internalization (out of bound fraction) (SHP-77 cells [1]) [%] | % Binding (SHP-77 cells [2]) [%]
1 | CC(=O)N[C@H](C)C(=O)N[C@@H](CO)C(=O)N[C@@H](CC(=O)O)C(=O)N[C@H]1CSSC[C@@H](C(=O)N2CCC[C@@]2(C)C(=O)N[C@@H](Cc2ccccc2)C(=O)N[C@@H](CC(=O)O)C(=O)N[C@H](CCCCNC(=O)CN2CCN(CC(=O)O)CCN(CC(=O)O)CCN(CC(=O)O)CC2)C(N)=O)NC(=O)[C@H](CC(=O)O)NC(=O)[C@H](Cc2ccc3ccccc3c2)NC(=O)[C@H](C)NC(=O)[C@H](CC(C)(C)C)NC(=O)[C@H](Cc2cccc3ccccc23)NC1=O [compound 166, Ac-(D-Ala)-S-D-C(3)-(1Nal)-(t-Bu-Ala)-Ala-(2Nal)-D-C(3)-(aMe-P)-F-D-[D-Lys(DOTA)]-NH2] (Ac-[dA]SDC[1Nal][tBuAla]A[2Nal]DC[αMeP]FD[dK](DOTA)-NH2; disulfide 4-10) | 49 | – | 58 | 7
2 | CC(C)(C)C[C@@H]1NC(=O)[C@H](Cc2cccc3ccccc23)NC(=O)[C@@H](NC(=O)[C@H](CC(=O)O)NC(=O)[C@H](CO)NC(=O)CCCCCNC(=O)CN2CCN(CC(=O)O)CCN(CC(=O)O)CCN(CC(=O)O)CC2)CSSC[C@@H](C(=O)N2CCC[C@@]2(C)C(=O)N[C@@H](Cc2ccccc2)C(=O)N[C@@H](CC(=O)O)C(N)=O)NC(=O)[C@H](CC(N)=O)NC(=O)[C@H](Cc2ccc3ccccc3c2)NC(=O)[C@H](CC2CCNCC2)NC1=O [compound 176, DOTA-Ahx-S-D-C(3)-(1Nal)-(t-Bu-Ala)-[3-(4-piperidinyl)-Ala]-(2Nal)-N-C(3)-(aMe-P)-F -D-CONH2] ({DOTA-Ahx}-SDC[1Nal][tBuAla][Ala(piperidin-4-yl)][2Nal]NC[αMeP]FD-NH2; disulfide 3-9) | 47 | – | 53 | 6
3 | Ac-[dA]SDC[1Nal][tBuAla]A[2Nal]DC[αMeP]FD[dK](DOTA)-NH2 (disulfide 4-10; also: 177Lu chelated) [[177Lu]Lu-Cpd #166] | – | 7 | – | –
4 | Ac-[dA]SDC[1Nal][tBuAla][PAF(DOTA)][2Nal]NC[αMeP]FD-NH2 (disulfide 4-10; reading uncertain; also: 177Lu chelated, printed as Ac-(D-Ala)-S-D-C(3)-(1Nal)-(t-Bu-Ala)-[PAF(DOTA)]-(2Nal)-N-C(3)-(aMe-P)-F-D-CONH2; (3)=disulfide; 177Lu chelated) [[177Lu]Lu-Cpd #158] | – | 25 | – | –
5 | {DOTA}-[dA]SDC[1Nal][tBuAla]Q[2Nal]NC[αMeP][Phe(2-Me)]D-NH2 (disulfide 4-10; also: 177Lu chelated) [[177Lu]Lu-Cpd #154] | – | 10 | – | –

More lines, main results first:

Row | Kd (human DLL3) [pM] | % Binding [3] [%] | Molecule | % Internalization (out of bound fraction) (SHP-77 cells [1]) [%] | % Binding (SHP-77 cells [2]) [%]
6 | 210 | – | CC(=O)N[C@@H](CC1CCNCC1)C(=O)N(C)[C@@H](CO)C(=O)N[C@@H](CC(=O)O)C(=O)N[C@H]1CSSC[C@@H](C(=O)N2CCC[C@@]2(C)C(=O)N[C@@H](Cc2ccccc2)C(=O)N[C@@H](CC(=O)O)C(N)=O)NC(=O)[C@H](CC(N)=O)NC(=O)[C@H](Cc2ccc3ccccc3c2)NC(=O)[C@H](Cc2ccc(CNC(=O)CN3CCN(CC(=O)O)CCN(CC(=O)O)CCN(CC(=O)O)CC3)cc2)NC(=O)[C@H](CC(C)(C)C)NC(=O)[C@H](Cc2cccc3ccccc23)NC1=O [compound 191, Ac-[3-(4-piperidinyl)-Ala]-(NMe-Ser)-D-C(3)-(1Nal)-(t-Bu-Ala)-[PAF(DOTA)]-(2Nal)-N-C(3)-(aMe-P)-F-D-CONH2] (Ac-[Ala(piperidin-4-yl)][NMeS]DC[1Nal][tBuAla][Phe(4-CH2NH2)](DOTA)[2Nal]NC[αMeP]FD-NH2; disulfide 4-10) | 48 | 10
7 | 270 | – | CC(=O)N[C@@H](CC1CCNCC1)C(=O)N(C)[C@@H](CO)C(=O)N[C@@H](CC(N)=O)C(=O)N[C@H]1CSSC[C@@H](C(=O)N2CCC[C@@]2(C)C(=O)N[C@@H](Cc2ccccc2)C(=O)N[C@@H](CC(=O)O)C(N)=O)NC(=O)[C@H](CC(N)=O)NC(=O)[C@H](Cc2ccc3ccccc3c2)NC(=O)[C@H](Cc2ccc(CNC(=O)CN3CCN(CC(=O)O)CCN(CC(=O)O)CCN(CC(=O)O)CC3)cc2)NC(=O)[C@H](CC(C)(C)C)NC(=O)[C@H](Cc2cccc3ccccc23)NC1=O [compound 192, Ac-[3-(4-piperidinyl)-Ala]-(NMe-Ser)-N-C(3)-(1Nal)-(t-Bu-Ala)-[PAF(DOTA)]-(2Nal)-D-C(3)-(aMe-P)-F-D-CONH2] (Ac-[Ala(piperidin-4-yl)][NMeS]NC[1Nal][tBuAla][Phe(4-CH2NH2)](DOTA)[2Nal]NC[αMeP]FD-NH2; disulfide 4-10) | 45 | 9
8 | 630 | – | CC(=O)N[C@H](C)C(=O)N(C)[C@@H](CO)C(=O)N[C@@H](CC(=O)O)C(=O)N[C@H]1C/C=C/C[C@@H](C(=O)N2CCC[C@@]2(C)C(=O)N[C@@H](Cc2ccccc2)C(=O)N[C@@H](CC(=O)O)C(N)=O)NC(=O)[C@H](CC(N)=O)NC(=O)[C@H](Cc2ccc3ccccc3c2)NC(=O)[C@H](Cc2ccc(CNC(=O)CN3CCN(CC(=O)O)CCN(CC(=O)O)CCN(CC(=O)O)CC3)cc2)NC(=O)[C@H](CC(C)(C)C)NC(=O)[C@H](Cc2cccc3ccccc23)NC1=O [compound 195, Ac-(D-Ala)-(NMe-Ser)-D-AllyG(4)-(1Nal)-(t-Bu-Ala)-[PAF(DOTA)]-(2Nal)-N-AllyG(4)-(aMe-P)-F-D-CONH2] (Ac-[dA][NMeS]D[AllylGly][1Nal][tBuAla][Phe(4-CH2NH2)](DOTA)[2Nal]N[AllylGly][αMeP]FD-NH2; staple (E) 4-10) | 43 | 7
9 | 180 | – | CC(=O)N[C@@H](CC1CCNCC1)C(=O)N[C@@H](CO)C(=O)N[C@@H](CC(=O)O)C(=O)N[C@H]1CC=CC[C@@H](C(=O)N2CCC[C@@]2(C)C(=O)N[C@@H](Cc2ccccc2)C(=O)N[C@@H](CC(=O)O)C(N)=O)NC(=O)[C@H](CC(N)=O)NC(=O)[C@H](Cc2ccc3ccccc3c2)NC(=O)[C@H](Cc2ccc(CNC(=O)CN3CCN(CC(=O)O)CCN(CC(=O)O)CCN(CC(=O)O)CC3)cc2)NC(=O)[C@H](CC(C)(C)C)NC(=O)[C@H](Cc2cccc3ccccc23)NC1=O [compound 200, Ac-[3-(4-piperidinyl)-Ala]-S-D-AllyG(4)-(1Nal)-(t-Bu-Ala)-[PAF(DOTA)]-(2Nal)-N-AllyG(4)-(aMe-P)-F-D-CONH2] (Ac-[Ala(piperidin-4-yl)]SD[AllylGly][1Nal][tBuAla][Phe(4-CH2NH2)](DOTA)[2Nal]N[AllylGly][αMeP]FD-NH2; staple 4-10) | 46 | 6
